Assay [1] deals with breast carcinoma MCF7. The assay can be described thus: Cytotoxicity screening test, MCF7. It counts as cell-based. The following applies: Homo sapiens; MCF7 breast adenocarcinoma, 72 h; read-out: Cytotoxicity IC50 ± SD, MCF7. The source says: (§1) The screening cell lines, T-lymphoblastic leukemia CCRF-CEM, breast carcinoma MCF7, cervical carcinoma HeLa, and human foreskin fibroblasts BJ, were obtained from the American Type Culture Collection (Manassas, VA, USA). The procedure for cell culturing has already been described. ,

Assay [2] concerns cervical carcinoma HeLa. The assay can be described thus: Cytotoxicity screening test, HeLa. It counts as cell-based. Particulars: Homo sapiens; HeLa cervical cancer, 72 h; read-out: Cytotoxicity IC50 ± SD, HeLa.
Excerpt: as §1

Structures are written as SMILES.

With `COc1cccc2c1C(=O)c1c(O)c3c(c(O)c1C2=O)C[C@@](O)(C(=O)CO)C[C@@H]3O[C@H]1C[C@H](N)[C@H](O)[C@H](C)O1` [doxorubicin], the IC50 amounted to 273 ± 19 nM in assay [1] and 868 ± 54 nM in assay [2].
